Measured values: US9550811B2, “Peptide scaffold design” (BIONOR IMMUNO AS, priority 2010, dated 2017)

Assays:
Assay in all cases: REVEAL binding assay
Conditions in all cases: score as percentage of the signal generated by the positive control peptide
HLA-A2 = HLA-A2 (Homo sapiens, UniProt P04439, D140Y/D185E/D98H/E176V/E277Q/G131W/G231S/I119V/I121R/I166T/I218V/N151K/N90K/P208A/P217A/Q86G/Q94H/R138H/R169H)
Procedure: (§1) Binding properties to HLA for the ninemers listed in table 6 were tested for the following HLA-classes:
(§2) HLA-A1, HLA-A2, HLA-A3, HLA-A11, HLA-A24, HLA-A29, HLA-B7, HLA-B8, HLA-B14, HLA-B15, HLA-B27, HLA-B35, HLA-B40.
(§3) The peptides were synthesized as a Prospector PEPscreen®: Custom Peptide Library. […] Quality control by MALDI-TOF Mass Spectrometry was carried out on 100% of samples.
(§4) The REVEAL™ binding assay determined the ability of each candidate peptide to bind to one or more MHC class I alleles and stabilizing the MHC-peptide complex. By comparing the binding to that of high and intermediate affinity T cell epitopes, the most likely immunogenic peptides in a protein sequence can be identified. Detection is based on the presence or absence of the native conformation of the MHC-peptide complex. Each peptide is given a score relative to the positive control peptide, which is a known T cell epitope.

HLA-A11 = HLA-A11 (Homo sapiens, UniProt P04439, A114D/F33Y/S129P)
Procedure: as §1, §2, §3, §4

HLA-B7 = HLA-B7 (Homo sapiens, UniProt P01889)
Procedure: as §1, §2, §3, §4

HLA-B27 = HLA-B27 (Homo sapiens, UniProt P01889, D138H/D201E/E176V/E204Q/G107R/H137Y/K202T/N104T/N87E/Q56L/Q94K/R106L/R155S/R180L/S101D/S121N/S48T/Y140D/Y33H/Y91C)
Procedure: as §1, §2, §3, §4

HLA-A3 = HLA-A3 (Homo sapiens, UniProt P04439)
Procedure: as §1, §2, §3, §4

HLA-B8 = test system: HLA-B8
HLA-B40 = test system: HLA-B40
Procedure: as §1, §2
The peptides were synthesized as a Prospector PEPscreen®: Custom Peptide Library. Peptides 8-15 amino acids in length were synthesized in 0.5-2 mg quantities with high average purity. Quality control by MALDI-TOF Mass Spectrometry was carried out on 100% of samples.
as §4, with “epitope. The score of the test peptide is reported quantitatively as a percentage of the signal generated by the positive control peptide, and the peptide is indicated as having a putative pass or fail result. Assay performance is confirmed by including an intermediate control peptide that is known to bind with weaker affinity to the allele under investigation.” for “epitope.”

HLA-B35 = test system: HLA-B35
HLA-B15 = test system: HLA-B15
HLA-A29 = test system: HLA-A29
HLA-B14 = test system: HLA-B14
HLA-A24 = test system: HLA-A24
From the text: (§5) The REVEAL™ binding assay determined the ability of each candidate peptide to bind to one or more MHC class I alleles and stabilizing the MHC-peptide complex. […] Detection is based on the presence or absence of the native conformation of the MHC-peptide complex. Each peptide is given a score relative to the positive control peptide, which is a known T cell epitope.

HLA-A1 = test system: HLA-A1
From the text: as §5

HLA-B7, sequence (P61769 21-119): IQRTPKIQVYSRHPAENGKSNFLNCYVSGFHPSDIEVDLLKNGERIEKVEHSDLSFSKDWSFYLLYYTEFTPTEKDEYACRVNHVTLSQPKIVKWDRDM
HLA-B7, sequence (P01889 25-299): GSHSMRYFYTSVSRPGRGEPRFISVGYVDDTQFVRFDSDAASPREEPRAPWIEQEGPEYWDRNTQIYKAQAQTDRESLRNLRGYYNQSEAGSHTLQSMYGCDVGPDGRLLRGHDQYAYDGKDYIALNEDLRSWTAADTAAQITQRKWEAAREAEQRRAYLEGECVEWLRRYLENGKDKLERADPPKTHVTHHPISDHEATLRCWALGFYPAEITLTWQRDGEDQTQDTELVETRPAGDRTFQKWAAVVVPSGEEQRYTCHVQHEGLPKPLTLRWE
HLA-A3, sequence (P04439 25-299): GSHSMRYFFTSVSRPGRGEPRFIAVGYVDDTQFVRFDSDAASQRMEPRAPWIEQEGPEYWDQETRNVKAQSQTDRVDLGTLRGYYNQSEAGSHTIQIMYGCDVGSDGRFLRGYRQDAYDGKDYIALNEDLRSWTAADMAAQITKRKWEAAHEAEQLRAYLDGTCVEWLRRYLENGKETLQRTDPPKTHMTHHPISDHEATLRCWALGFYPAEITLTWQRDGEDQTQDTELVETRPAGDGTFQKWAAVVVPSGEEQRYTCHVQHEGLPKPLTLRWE
HLA-A3, sequence (P61769 21-119, further chain): as the sequence (P61769 21-119) above

Row | Sequence | REVEAL binding score, HLA-type A2 (HLA-A2) [%] | REVEAL binding score, HLA-type A11 (HLA-A11) [%] | REVEAL binding score, HLA-type B7 (HLA-B7) [%] | REVEAL binding score, HLA-type B27 (HLA-B27) [%] | REVEAL binding score, HLA-type A3 (HLA-A3) [%] | REVEAL binding score, HLA-type B8 (HLA-B8) [%] | REVEAL binding score, HLA-type B40 (HLA-B40) [%] | REVEAL binding score, HLA-type B35 (HLA-B35) [%] | REVEAL binding score, HLA-type B15 (HLA-B15) [%] | REVEAL binding score, HLA-type A29 (HLA-A29) [%] | REVEAL binding score, HLA-type B14 (HLA-B14) [%] | REVEAL binding score, HLA-type A24 (HLA-A24) [%] | REVEAL binding score, HLA-type A1 (HLA-A1) [%]
1 | GYIPLVGAP | 7.28 | 3.84 | 1.37 | 1.76 | 3.46 | 15.94 | 72.32 | 10.35 | 11.02 | 29.74 | 0.47 | 0.80 | 15.62
2 | GYLPAVGAP | 5.87 | 4.25 | 3.10 | 0.73 | 2.90 | 17.38 | 27.82 | 1.84 | 10.50 | 26.03 | 0.11 | 0.35 | 12.04
3 | IGGNYLIPR | 7.04 | 3.57 | 20.49 | 0.82 | 2.88 | 14.23 | 25.44 | 2.54 | 15.02 | 14.85 | 0.32 | 0.89 | 17.90
4 | IIGGNYLIP | 8.27 | 2.81 | 15.47 | 0.97 | 3.88 | 12.18 | 65.43 | 5.35 | 19.93 | 13.88 | 1.17 | 10.95 | 21.14
5 | IPLVGAPLG | 4.32 | 2.05 | 2.34 | 0.35 | 2.59 | 17.87 | 41.10 | 30.74 | 10.01 | 26.79 | 0.03 | 0.60 | 13.28
6 | IRNLGRVIE | 8.77 | 5.31 | 1.43 | 1.84 | 3.89 | 9.10 | 21.40 | 1.98 | 4.06 | 11.06 | 30.77 | 0.61 | 14.22
7 | IRVIAHGLR | 4.83 | 2.50 | 3.50 | 9.37 | 3.58 | 13.34 | 26.45 | 0.66 | 8.99 | 23.19 | 0.10 | 0.50 | 15.82
8 | ITFSIYLIV | 43.08 | 5.31 | 4.32 | 4.79 | 1.66 | 11.38 | 78.84 | 12.30 | 6.68 | 24.10 | 1.53 | 0.77 | 9.89
9 | IVGGVYLLP | 6.78 | 3.10 | 24.16 | 0.68 | 1.88 | 11.48 | 19.83 | 2.68 | 15.00 | 12.38 | 1.65 | 0.30 | 22.11
10 | KVIDTLTCG | 19.13 | 8.91 | 0.57 | 0.63 | 4.27 | 13.17 | 32.89 | 2.74 | 10.13 | 13.16 | 0.18 | 0.57 | 15.77
11 | LGKVIDTLT | 4.05 | 12.95 | 0.94 | 2.90 | 7.39 | 17.96 | 44.92 | 5.11 | 7.14 | 15.99 | 0.43 | 0.70 | 22.08
12 | LGRVIETLT | 5.90 | 20.27 | 2.66 | 2.54 | 7.40 | 14.74 | 62.07 | 3.43 | 16.38 | 12.31 | 0.28 | 0.97 | 16.33
13 | LMGYIPLVG | 31.94 | 2.13 | 0.41 | 1.44 | 2.53 | 20.75 | 33.55 | 0.81 | 9.43 | 24.26 | 0.08 | 0.51 | 14.17
